Measurements reported in ChEMBL document CHEMBL1201862, “PubChem BioAssay data set” (2004).
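In this assay, cells in 96-well plates receive the compound at five concentrations for 48 hours. Endpoints are linearly interpolated between the surrounding concentrations. GI50 is the concentration that inhibits growth by half.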 The source made the active and inactive calls. Cut-off read from the data, not from the text of the source: active = GI50 up to about 1.1 µM and inactive = higher.

Tests used:
Experiment in all cases: NCI anticancer screen, dose series, 48 h
HCT-15 = system: HCT-15
DU-145 = system: DU-145
RPMI-8226 = system: RPMI-8226
SK-MEL-28 = system: SK-MEL-28
OVCAR-5 = system: OVCAR-5
OVCAR-4 = system: OVCAR-4
HCT-116 = system: HCT-116
SK-MEL-2 = system: SK-MEL-2
SW-620 = system: SW-620
NCI-H226 = system: NCI-H226
RXF 393 = system: RXF 393
SR = system: SR
OVCAR-8 = system: OVCAR-8
COLO 205 = system: COLO 205
PC-3 = system: PC-3
Hs-578T = system: Hs-578T
SF-295 = system: SF-295
CCRF-CEM = system: CCRF-CEM
HOP-62 = system: HOP-62
MDA-MB-435 = system: MDA-MB-435

Row | Structure (SMILES) | GI50 (HCT-15) [µM] | GI50 (DU-145) | GI50 (RPMI-8226) | GI50 (SK-MEL-28) | GI50 (OVCAR-5) | GI50 (OVCAR-4) | GI50 (HCT-116) | GI50 (SK-MEL-2) | GI50 (SW-620) | GI50 (NCI-H226) | GI50 (RXF 393) | GI50 (SR) | GI50 (OVCAR-8) | GI50 (COLO 205) | GI50 (PC-3) | GI50 (Hs-578T) | GI50 (SF-295) | GI50 (CCRF-CEM) | GI50 (HOP-62) | GI50 (MDA-MB-435)
1 | O=C1CCC(Cc2ccc(Cl)cc2Cl)C(=O)N1 (stereo not given) | 82.8 | > 100 µM (inactive) | 79.4 µM (inactive) | > 100 µM (inactive) | > 100 µM (inactive) | > 100 µM (inactive) | > 100 µM (inactive) | > 100 µM (inactive) | > 100 µM (inactive) | > 100 µM (inactive) | 32 µM (inactive) | > 100 µM (inactive) | > 100 µM (inactive) | > 100 µM (inactive) | > 100 µM (inactive) | 81.5 µM (inactive) | > 100 µM (inactive) | > 100 µM (inactive) | > 100 µM (inactive) | > 100 µM (inactive)
2 | COC(=O)C1CCC(=O)N1CN(C(C)=O)c1cc(OC)ccc1OC (stereo not given) | > 100 | > 100 µM (inactive) | > 100 µM (inactive) | > 100 µM (inactive) | > 100 µM (inactive) | > 100 µM (inactive) | > 100 µM (inactive) | > 100 µM (inactive) | > 100 µM (inactive) | > 100 µM (inactive) | > 100 µM (inactive) | 16.9 µM (inactive) | > 100 µM (inactive) | > 100 µM (inactive) | > 100 µM (inactive) | > 100 µM (inactive) | > 100 µM (inactive) |  | > 100 µM (inactive) | > 100 µM (inactive)
3 | Cc1sc(NC=C2C(=O)CC(C)(C)CC2=O)nc1-c1ccccc1 | > 100 | > 100 µM (inactive) | > 100 µM (inactive) | > 100 µM (inactive) | > 100 µM (inactive) | > 100 µM (inactive) | > 100 µM (inactive) | > 100 µM (inactive) | > 100 µM (inactive) | > 100 µM (inactive) | > 100 µM (inactive) | > 100 µM (inactive) | > 100 µM (inactive) | > 100 µM (inactive) | > 100 µM (inactive) | > 100 µM (inactive) | > 100 µM (inactive) | 72.6 µM (inactive) | > 100 µM (inactive) | > 100 µM (inactive)
4 | CNC(=S)/C(=N\Nc1[nH]cnc1C(N)=O)C(N)=S | 15.1 | 1.2 µM (inactive) | 1.14 µM (inactive) | 69.7 µM (inactive) | > 31.6 µM (inactive) | 4.17 µM (inactive) | 3.52 µM (inactive) | 0.875 µM (active) | 3.78 µM (inactive) | 5.73 µM (inactive) | > 100 µM (inactive) | < 0.01 µM (active) | 1.11 µM (active) | 4.57 µM (inactive) | 5.52 µM (inactive) | 9.14 µM (inactive) | 3.36 µM (inactive) | 0.689 µM (active) | 19.2 µM (inactive) | 7.03 µM (inactive)
5 | Cc1cc(=O)oc2c(CNC(Cc3ccccc3)C(=O)O)c(O)ccc12 (stereo not given) | > 100 | > 100 µM (inactive) | > 100 µM (inactive) | > 100 µM (inactive) | > 100 µM (inactive) | > 100 µM (inactive) | > 100 µM (inactive) | > 100 µM (inactive) | > 100 µM (inactive) | > 100 µM (inactive) | > 100 µM (inactive) | > 100 µM (inactive) | > 100 µM (inactive) | > 100 µM (inactive) | > 100 µM (inactive) | > 100 µM (inactive) | > 100 µM (inactive) | > 100 µM (inactive) | > 100 µM (inactive) | > 100 µM (inactive)
6 | Cc1nc2cccc([N+](=O)[O-])c2c(NCCCN(C)C)c1C | 26.5 | 78.2 µM (inactive) | 34.8 µM (inactive) | > 100 µM (inactive) | 27 µM (inactive) | 17.3 µM (inactive) | 20.9 µM (inactive) | > 51.3 µM (inactive) | 29.4 µM (inactive) | > 50.6 µM (inactive) | 16.1 µM (inactive) | > 34.5 µM (inactive) | 36.1 µM (inactive) | 22.3 µM (inactive) | 17.8 µM (inactive) | > 61.1 µM (inactive) | 36.6 µM (inactive) | 21.3 µM (inactive) | 28.9 µM (inactive) | 71.4 µM (inactive)
7 | CC1CC(NN(C)C)C2(C(N)=O)C(N)=NC(=O)C12C#N (stereo not given) | > 100 | > 100 µM (inactive) | > 100 µM (inactive) | > 100 µM (inactive) | > 100 µM (inactive) |  | > 100 µM (inactive) | > 100 µM (inactive) | > 100 µM (inactive) | > 100 µM (inactive) | > 100 µM (inactive) | > 100 µM (inactive) | > 100 µM (inactive) | > 100 µM (inactive) | > 100 µM (inactive) | > 100 µM (inactive) | > 100 µM (inactive) | > 100 µM (inactive) | > 100 µM (inactive) | > 100 µM (inactive)
8 | CCOc1ccc2c(c1)NC(=O)C(C1OC(c3ccccc3)=CC1=O)S2 (stereo not given) | 21.8 | 38.5 µM (inactive) | 12 µM (inactive) | 31 µM (inactive) | 16.1 µM (inactive) |  | 35.6 µM (inactive) | 40.1 µM (inactive) | 33.4 µM (inactive) | 27.7 µM (inactive) | 19.7 µM (inactive) | 15.7 µM (inactive) | 22.5 µM (inactive) | 14 µM (inactive) | 13.8 µM (inactive) | 27.5 µM (inactive) | 27 µM (inactive) | 1.9 µM (inactive) | 53.2 µM (inactive) | 18.5 µM (inactive)
9 | CC1(C)N=[N+]([O-])C1(C)C | > 100 | > 100 µM (inactive) | > 100 µM (inactive) | > 100 µM (inactive) | > 100 µM (inactive) | > 100 µM (inactive) | > 100 µM (inactive) | > 100 µM (inactive) | > 100 µM (inactive) | > 100 µM (inactive) | > 100 µM (inactive) | > 100 µM (inactive) | > 100 µM (inactive) | > 100 µM (inactive) | > 100 µM (inactive) | > 100 µM (inactive) |  | > 100 µM (inactive) |  | > 100 µM (inactive)
10 | CNC(=S)NNc1ncnc2c1c(-c1ccc(Cl)cc1)cn2-c1ccc(C)cc1 | 8.39 | 14.8 µM (inactive) | 3.13 µM (inactive) | 11.4 µM (inactive) | 14.7 µM (inactive) | 15.6 µM (inactive) | 4.57 µM (inactive) | 13.6 µM (inactive) | 6.67 µM (inactive) | 24.6 µM (inactive) | 16.4 µM (inactive) | 2.21 µM (inactive) | 9.48 µM (inactive) | 14.3 µM (inactive) | 5.45 µM (inactive) | 20.9 µM (inactive) | 6.05 µM (inactive) | 0.897 µM (active) | 17.6 µM (inactive) | 8.34 µM (inactive)
11 | O=C(OC1CN2CCC1CC2)N(c1ccccc1)c1ccccc1 (stereo not given) | > 100 | > 100 µM (inactive) | > 100 µM (inactive) | 80.5 µM (inactive) | > 100 µM (inactive) | > 100 µM (inactive) | 47.4 µM (inactive) | > 100 µM (inactive) |  | > 100 µM (inactive) | 50.1 µM (inactive) | 4.61 µM (inactive) | > 100 µM (inactive) | 43.1 µM (inactive) | 69.2 µM (inactive) | > 100 µM (inactive) | 51.1 µM (inactive) | 54.7 µM (inactive) | 80.5 µM (inactive) | > 100 µM (inactive)
12 | S=C1NC2=C(COC/C2=C\c2ccccc2Cl)C(c2ccccc2Cl)N1 (stereo not given) | 16.8 | 70.8 µM (inactive) | 5.26 µM (inactive) |  | > 100 µM (inactive) | 31.3 µM (inactive) | 17.5 µM (inactive) | 21.2 µM (inactive) | 25.5 µM (inactive) | 27.4 µM (inactive) | 33.3 µM (inactive) | 2.84 µM (inactive) | 29.8 µM (inactive) | 18.5 µM (inactive) | 14.3 µM (inactive) | > 100 µM (inactive) | 35.2 µM (inactive) | 8.75 µM (inactive) | 61.4 µM (inactive) | 25.7 µM (inactive)
13 | Cc1ccc2c(c1)C(=O)C1(Cc3ccccc3C1=O)C2 (stereo not given) | > 100 | > 100 µM (inactive) | > 100 µM (inactive) | > 100 µM (inactive) | > 100 µM (inactive) | > 100 µM (inactive) | > 100 µM (inactive) |  | > 100 µM (inactive) | > 100 µM (inactive) | 47 µM (inactive) | > 100 µM (inactive) | > 100 µM (inactive) | > 100 µM (inactive) | > 100 µM (inactive) | > 100 µM (inactive) | > 100 µM (inactive) | > 100 µM (inactive) | 47 µM (inactive) | > 100 µM (inactive)
14 | CN(C)Cc1cc(/N=N/c2ccc(Cl)c(Cl)c2)ccc1O | 6.5 | 4 µM (inactive) | 14.3 µM (inactive) | 13.7 µM (inactive) |  | 7.28 µM (inactive) | 14.4 µM (inactive) |  | 11.1 µM (inactive) | 17.9 µM (inactive) | 1.48 µM (inactive) | 7.45 µM (inactive) | 12.9 µM (inactive) | 2.84 µM (inactive) | 11.6 µM (inactive) | 6.03 µM (inactive) | 17.8 µM (inactive) | 4.43 µM (inactive) | 2.72 µM (inactive) | 11.7 µM (inactive)
15 | N#Cc1c(N)nc2[nH]nc(N)c2c1-c1ccccc1 | 5.41 | 8.11 µM (inactive) | > 24.3 µM (inactive) | 14.2 µM (inactive) | 14.9 µM (inactive) | 11.3 µM (inactive) | 7.29 µM (inactive) | 3.4 µM (inactive) | 26.9 µM (inactive) | 11.8 µM (inactive) | 3.78 µM (inactive) | > 20.4 µM (inactive) | 12.5 µM (inactive) | 5.65 µM (inactive) | 5.13 µM (inactive) | 5.3 µM (inactive) | 6.04 µM (inactive) | 16.4 µM (inactive) | 27.5 µM (inactive) | 6.93 µM (inactive)
